Source: patent publication US20240425502A1, “BICYCLIC HETEROAROMATIC COMPOUNDS AND THEIR USE AS PEST CONTROL AGENTS” (PI INDUSTRIES LTD., priority 2021, published 2024)

How the values were obtained:
Type in all cases: in vivo
Nilaparvata lugens = Nilaparvata lugens seedling dip test (paddy seedlings, third instar nymphs); details: 72 h after release, dead and moribund combined, compared to untreated control, read-out: percent mortality
Bemisia tabaci = Bemisia tabaci leaf dip test (brinjal leaves, whitefly adults); details: foliar, 72 h after release, dead and moribund combined, compared to untreated control, read-out: percent mortality
Protocol: The leaf dip method was used for testing, wherein the required quantity of the compound was weighed and dissolved in a tube containing a solvent solution. The tube was put on a vortex at 2000 rpm for 90 min for proper mixing and then the mixture was diluted with a 0.01% Triton-X solution to the desired test concentration. Brinjal leaves were dipped in the compound solution for 10 seconds, shade dried for 20 min and then placed, with the abaxial side of the leaf up, on 4 ml of a 1% agar-agar solution in respective container caps. Known numbers of freshly emerged whitefly adults were collected, using a modified aspirator, and released into a perforated container in which the cap containing the treated leaf was placed. The containers were kept in a plant growth chamber at a temperature of 25° C. and a relative humidity of 70%. Observations on dead, moribund and alive adults were recorded 72 h after the release. Percent mortality was calculated by combining dead and moribund adults and comparing the result to the one of the untreated control. The compounds 32 53 58 79 80 81 82 84 87 88 89 94 95 96 101 102 103 104 105 106 107 108 109 112 113 114 115 116 117 118 119 120 123 124 125 126 127 130 135 138 139 140 144 145 147 150 154 156 158 159 164 167 168 169 170 171 188 189 191 198 199 200 201 202 206 207 208 209 210 213 216 223 224 225 227 228 231 232 233 234 235 236 238 242 243 244 246 and 247 recorded≥70 percent mortality @ 300 PPM.

Myzus persicae = Myzus persicae leaf dip test (capsicum leaves, third instar nymphs); details: foliar, 72 h after release, dead and moribund combined, compared to untreated control, read-out: percent mortality

Structure (SMILES)	mortality at 300 ppm (Nilaparvata lugens) [%]	mortality at 300 ppm (Bemisia tabaci) [%]	mortality at 300 ppm (Myzus persicae) [%]
O=c1nc2n(Cc3cnc(Cl)nc3)cccc-2c(=O)n1-c1c(F)cccc1F [Compound 206, 8-((2-chloropyrimidin-5-yl)methyl)-3-(2,6-difluorophenyl)pyrido[2,3-d]pyrimidine-2,4(3H,8H)-dione]	≥ 70	≥ 70	
O=c1c2cccn(Cc3ccc(Cl)nc3)c-2nc(=S)n1-c1ccc(OC(F)(F)F)cc1 [Compound 209, 8-((6-chloropyridin-3-yl)methyl)-2-thioxo-3-(4-(trifluoromethoxy)phenyl)-2,8-dihydropyrido[2,3-d]pyrimidin-4(3H)-one]	≥ 70	≥ 70	
O=c1nc2n(Cc3cnc(Cl)s3)cccc-2c(=O)n1-c1cccc(C(F)(F)F)c1 [Compound 88, 8-((2-chlorothiazol-5-yl)methyl)-3-(3-(trifluoromethyl)phenyl)pyrido[2,3-d]pyrimidine-2,4(3H,8H)-dione]	≥ 70	≥ 70	≥ 70
O=c1nc2n(Cc3cnc(Cl)nc3)cccc-2c(=O)n1-c1ccc(F)cc1Cl [Compound 225, 3-(2-chloro-4-fluorophenyl)-8-((2-chloropyrimidin-5-yl)methyl)pyrido[2,3-d]pyrimidine-2,4(3H,8H)-dione]	≥ 70	≥ 70	≥ 70
CC(C)n1c(=O)nc2n(Cc3cnc(Cl)nc3)cccc-2c1=O [Compound 84, 8-((2-chloropyrimidin-5-yl)methyl)-3-isopropylpyrido[2,3-d]pyrimidine-2,4(3H,8H)-dione]		≥ 70	≥ 70
O=c1nc2n(Cc3cnc(Cl)nc3)cccc-2c(=O)n1-c1cc(Cl)cc(Cl)c1 [Compound 201, 8-((2-chloropyrimidin-5-yl)methyl)-3-(3,5-dichlorophenyl)pyrido[2,3-d]pyrimidine-2,4(3H,8H)-dione]	≥ 70	≥ 70	≥ 70
O=c1nc2n(Cc3ccc(Cl)nc3)cccc-2c(=O)n1-c1ccc(OC(F)(F)F)cc1 [Compound 126, 8-((6-chloropyridin-3-yl)methyl)-3-(4-(trifluoromethoxy)phenyl)pyrido[2,3-d]pyrimidine-2,4(3H,8H)-dione]		≥ 70	≥ 70
O=c1nc2n(Cc3ccc(Cl)nc3)cccc-2c(=O)n1-c1cc(Cl)cc(C(F)(F)F)c1 [Compound 109, 3-(3-chloro-5-(trifluoromethyl)phenyl)-8-((6-chloropyridin-3-yl)methyl)pyrido[2,3-d]pyrimidine-2,4(3H,8H)-dione]	≥ 70	≥ 70	≥ 70
O=c1nc2n(Cc3ccc(Cl)nc3)cccc-2c(=O)n1-c1ccc(OCC(F)(F)F)cc1 [Compound 223, 8-((6-chloropyridin-3-yl)methyl)-3-(4-(2,2,2-trifluoroethoxy)phenyl)pyrido[2,3-d]pyrimidine-2,4(3H,8H)-dione]	≥ 70	≥ 70	≥ 70
O=c1nc2n(Cc3cnc(Cl)nc3)cccc-2c(=O)n1-c1ccc(Cl)c(F)c1 [Compound 208, 3-(4-chloro-3-fluorophenyl)-8-((2-chloropyrimidin-5-yl)methyl)pyrido[2,3-d]pyrimidine-2,4(3H,8H)-dione]	≥ 70	≥ 70	≥ 70
O=c1nc2n(Cc3ccc(Cl)nc3)cccc-2c(=O)n1-c1ccc2c(c1)OC(F)(F)O2 [Compound 199, 8-((6-chloropyridin-3-yl)methyl)-3-(2,2-difluorobenzo[d][1,3]dioxol-5-yl)pyrido[2,3-d]pyrimidine-2,4(3H,8H)-dione]	≥ 70	≥ 70	≥ 70
O=c1nc2n(Cc3cnc(Cl)nc3)cccc-2c(=O)n1-c1ccc(Cl)cc1 [Compound 82, 3-(4-chlorophenyl)-8-((2-chloropyrimidin-5-yl)methyl)pyrido[2,3-d]pyrimidine-2,4(3H,8H)-dione]	≥ 70	≥ 70	≥ 70
O=c1nc2n(Cc3cnc(Cl)nc3)cccc-2c(=O)n1-c1ccc(Br)cc1 [Compound 159, 3-(4-bromophenyl)-8-((2-chloropyrimidin-5-yl)methyl)pyrido[2,3-d]pyrimidine-2,4(3H,8H)-dione]	≥ 70	≥ 70	≥ 70
O=c1nc2n(Cc3ccc(Cl)nc3)cccc-2c(=O)n1-c1cc(C(F)(F)F)cc(C(F)(F)F)c1 [Compound 107, 3-(3,5-bis(trifluoromethyl)phenyl)-8-((6-chloropyridin-3-yl)methyl)pyrido[2,3-d]pyrimidine-2,4(3H,8H)-dione]		≥ 70	≥ 70
O=c1nc2n(Cc3cnc(Cl)nc3)cccc-2c(=O)n1-c1ccccc1F [Compound 200, 8-((2-chloropyrimidin-5-yl)methyl)-3-(2-fluorophenyl)pyrido[2,3-d]pyrimidine-2,4(3H,8H)-dione]	≥ 70	≥ 70	
O=c1nc2n(Cc3cnc(Cl)nc3)cccc-2c(=O)n1-c1cccc(F)c1 [Compound 118, 8-((2-chloropyrimidin-5-yl)methyl)-3-(3-fluorophenyl)pyrido[2,3-d]pyrimidine-2,4(3H,8H)-dione]	≥ 70	≥ 70	≥ 70
O=c1nc2n(Cc3cnc(Cl)nc3)cccc-2c(=O)n1-c1ccc(Cl)cc1F [Compound 147, 3-(4-chloro-2-fluorophenyl)-8-((2-chloropyrimidin-5-yl)methyl)pyrido[2,3-d]pyrimidine-2,4(3H,8H)-dione]	≥ 70	≥ 70	
O=c1nc2n(Cc3cnc(Cl)nc3)cccc-2c(=O)n1-c1ccc(Cl)c(C(F)(F)F)c1 [Compound 224, 3-(4-chloro-3-(trifluoromethyl)phenyl)-8-((2-chloropyrimidin-5-yl)methyl)pyrido[2,3-d]pyrimidine-2,4(3H,8H)-dione]	≥ 70	≥ 70	
O=c1nc2n(Cc3cnc(Cl)nc3)cccc-2c(=O)n1-c1ccc(Cl)c(Cl)c1 [Compound 158, 8-((2-chloropyrimidin-5-yl)methyl)-3-(3,4-dichlorophenyl)pyrido[2,3-d]pyrimidine-2,4(3H,8H)-dione]		≥ 70	
COc1cc(-n2c(=O)nc3n(Cc4cnc(Cl)nc4)cccc-3c2=O)ccc1Cl [Compound 171, 3-(4-chloro-3-methoxyphenyl)-8-((2-chloropyrimidin-5-yl)methyl)pyrido[2,3-d]pyrimidine-2,4(3H,8H)-dione]	≥ 70	≥ 70	
O=c1nc2n(Cc3ccc(C(F)(F)F)nc3)cccc-2c(=O)n1-c1ccc(Cl)cc1 [Compound 145, 3-(4-chlorophenyl)-8-((6-(trifluoromethyl)pyridin-3-yl)methyl)pyrido[2,3-d]pyrimidine-2,4(3H,8H)-dione]		≥ 70	
O=c1nc2n(Cc3cnc(Cl)nc3)cccc-2c(=O)n1-c1ccc(OC(F)(F)F)c(Cl)c1 [Compound 227, 3-(3-chloro-4-(trifluoromethoxy)phenyl)-8-((2-chloropyrimidin-5-yl)methyl)pyrido[2,3-d]pyrimidine-2,4(3H,8H)-dione]		≥ 70	
O=c1nc2n(Cc3cnc(Cl)s3)cccc-2c(=O)n1-c1ccc(Cl)cc1 [Compound 80, 3-(4-chlorophenyl)-8-((2-chlorothiazol-5-yl)methyl)pyrido[2,3-d]pyrimidine-2,4(3H,8H)-dione]		≥ 70	≥ 70
O=c1nc2n(Cc3ccc(C(F)(F)F)nc3)cccc-2c(=O)n1-c1ccc(F)cc1 [Compound 156, 3-(4-fluorophenyl)-8-((6-(trifluoromethyl)pyridin-3-yl)methyl)pyrido[2,3-d]pyrimidine-2,4(3H,8H)-dione]		≥ 70	
O=c1nc2n(Cc3cnc(Cl)nc3)cccc-2c(=O)n1-c1cccc(OC(F)(F)F)c1 [Compound 130, 8-((2-chloropyrimidin-5-yl)methyl)-3-(3-(trifluoromethoxy)phenyl)pyrido[2,3-d]pyrimidine-2,4(3H,8H)-dione]	≥ 70	≥ 70	
COc1cc(-n2c(=O)nc3n(Cc4cnc(Cl)s4)cccc-3c2=O)ccc1Cl [Compound 167, 3-(4-chloro-3-methoxyphenyl)-8-((2-chlorothiazol-5-yl)methyl)pyrido[2,3-d]pyrimidine-2,4(3H,8H)-dione]		≥ 70	
Cn1cc(-n2c(=O)nc3n(Cc4cnc(Cl)s4)cccc-3c2=O)cn1 [Compound 89, 8-((2-chlorothiazol-5-yl)methyl)-3-(1-methyl-1H-pyrazol-4-yl)pyrido[2,3-d]pyrimidine-2,4(3H,8H)-dione]		≥ 70	≥ 70
